Results on three compounds are retold here after PubChem BioAssay AID1259407 (Chemical Carcinogenesis Research Information System (CCRIS), 2018).

The data set has as its system CCRIS mutagenicity, Ames/micronucleus/aberration tests. Description: CCRIS mutagenicity studies.
[1] abbreviates: Test System: AMES SALMONELLA TYPHIMURIUM, Strain/Indicator: TA97, Metabolic Activation: NONE, Method: PREINCUBATION
The mark [2] stands for this setting: Test System: AMES SALMONELLA TYPHIMURIUM, Strain/Indicator: TA98, Metabolic Activation: NONE, Method: PREINCUBATION
The mark [3] stands for this setting: Test System: AMES SALMONELLA TYPHIMURIUM, Strain/Indicator: TA100, Metabolic Activation: NONE, Method: PREINCUBATION
Setting [4] is: Test System: AMES SALMONELLA TYPHIMURIUM, Strain/Indicator: TA1535, Metabolic Activation: NONE, Method: PREINCUBATION

The source made the active and inactive calls. The rule behind the calls is not given here.

Regarding `COC(=O)CCC(=O)OC`, the mutagenic call reads like this: (Test System: AMES SALMONELLA TYPHIMURIUM, Strain/Indicator: TA97, Metabolic Activation: HAMSTER, LIVER, S-9, AROCLOR 1254 (10 OR 30%), Method: PREINCUBATION) “inactive; negative”; under setting [1], “inactive; negative”; (Test System: AMES SALMONELLA TYPHIMURIUM, Strain/Indicator: TA97, Metabolic Activation: RAT, LIVER, S-9, AROCLOR 1254 (10 OR 30%), Method: PREINCUBATION) “inactive; negative”; (Test System: AMES SALMONELLA TYPHIMURIUM, Strain/Indicator: TA98, Metabolic Activation: HAMSTER, LIVER, S-9, AROCLOR 1254 (10 OR 30%), Method: PREINCUBATION) “inactive; negative”; under setting [2], “inactive; negative”; (Test System: AMES SALMONELLA TYPHIMURIUM, Strain/Indicator: TA98, Metabolic Activation: NONE, Method: STANDARD PLATE) “inactive; negative”. Besides, the mutagenic call runs as follows: (Test System: AMES SALMONELLA TYPHIMURIUM, Strain/Indicator: TA98, Metabolic Activation: RAT, LIVER, S-9, AROCLOR 1254 (10 OR 30%), Method: PREINCUBATION) “inactive; negative”; (Test System: AMES SALMONELLA TYPHIMURIUM, Strain/Indicator: TA98, Metabolic Activation: RAT, LIVER, S-9, AROCLOR 1254, Method: STANDARD PLATE) “inactive; negative”; (Test System: AMES SALMONELLA TYPHIMURIUM, Strain/Indicator: TA100, Metabolic Activation: HAMSTER, LIVER, S-9, AROCLOR 1254 (10 OR 30%), Method: PREINCUBATION) “inactive; negative”; under setting [3], “inactive; negative”; (Test System: AMES SALMONELLA TYPHIMURIUM, Strain/Indicator: TA100, Metabolic Activation: NONE, Method: STANDARD PLATE) “inactive; negative”; (Test System: AMES SALMONELLA TYPHIMURIUM, Strain/Indicator: TA100, Metabolic Activation: RAT, LIVER, S-9, AROCLOR 1254 (10 OR 30%), Method: PREINCUBATION) “inactive; negative”. Further, the mutagenic call is “inactive; negative” (Test System: AMES SALMONELLA TYPHIMURIUM, Strain/Indicator: TA100, Metabolic Activation: RAT, LIVER, S-9, AROCLOR 1254, Method: STANDARD PLATE); “inactive; negative” (Test System: AMES SALMONELLA TYPHIMURIUM, Strain/Indicator: TA1535, Metabolic Activation: HAMSTER, LIVER, S-9, AROCLOR 1254 (10 OR 30%), Method: PREINCUBATION); “inactive; negative” under setting [4]; “inactive; negative” (Test System: AMES SALMONELLA TYPHIMURIUM, Strain/Indicator: TA1535, Metabolic Activation: NONE, Method: STANDARD PLATE); “inactive; negative” (Test System: AMES SALMONELLA TYPHIMURIUM, Strain/Indicator: TA1535, Metabolic Activation: RAT, LIVER, S-9, AROCLOR 1254 (10 OR 30%), Method: PREINCUBATION); “inactive; negative” (Test System: AMES SALMONELLA TYPHIMURIUM, Strain/Indicator: TA1535, Metabolic Activation: RAT, LIVER, S-9, AROCLOR 1254, Method: STANDARD PLATE). For the same compound, the mutagenic call by setting is: (Test System: AMES SALMONELLA TYPHIMURIUM, Strain/Indicator: TA1537, Metabolic Activation: NONE, Method: STANDARD PLATE) “inactive; negative”; (Test System: AMES SALMONELLA TYPHIMURIUM, Strain/Indicator: TA1537, Metabolic Activation: RAT, LIVER, S-9, AROCLOR 1254, Method: STANDARD PLATE) “inactive; negative”.
As to `N#C/C(N)=C(/N)C#N`, the mutagenic call reads like this: (Test System: AMES SALMONELLA TYPHIMURIUM, Strain/Indicator: TA97, Metabolic Activation: HAMSTER, LIVER, S-9, AROCLOR 1254 (10%), Method: PREINCUBATION) “inactive; negative”; (Test System: AMES SALMONELLA TYPHIMURIUM, Strain/Indicator: TA97, Metabolic Activation: HAMSTER, LIVER, S-9, AROCLOR 1254 (30%), Method: PREINCUBATION) “inactive; negative”; under setting [1], “inactive; negative”; (Test System: AMES SALMONELLA TYPHIMURIUM, Strain/Indicator: TA97, Metabolic Activation: RAT, LIVER, S-9, AROCLOR 1254 (10%), Method: PREINCUBATION) “inactive; negative”; (Test System: AMES SALMONELLA TYPHIMURIUM, Strain/Indicator: TA97, Metabolic Activation: RAT, LIVER, S-9, AROCLOR 1254 (30%), Method: PREINCUBATION) “inactive; negative”; (Test System: AMES SALMONELLA TYPHIMURIUM, Strain/Indicator: TA98, Metabolic Activation: HAMSTER, LIVER, S-9, AROCLOR 1254 (10%), Method: PREINCUBATION) “inactive; negative”. For the same compound, the mutagenic call is “inactive; negative” (Test System: AMES SALMONELLA TYPHIMURIUM, Strain/Indicator: TA98, Metabolic Activation: HAMSTER, LIVER, S-9, AROCLOR 1254 (30%), Method: PREINCUBATION); “inactive; negative” under setting [2]; “inactive; negative” (Test System: AMES SALMONELLA TYPHIMURIUM, Strain/Indicator: TA98, Metabolic Activation: RAT, LIVER, S-9, AROCLOR 1254 (10%), Method: PREINCUBATION); “inactive; negative” (Test System: AMES SALMONELLA TYPHIMURIUM, Strain/Indicator: TA98, Metabolic Activation: RAT, LIVER, S-9, AROCLOR 1254 (30%), Method: PREINCUBATION); “inactive; negative” (Test System: AMES SALMONELLA TYPHIMURIUM, Strain/Indicator: TA100, Metabolic Activation: HAMSTER, LIVER, S-9, AROCLOR 1254 (10%), Method: PREINCUBATION); “inactive; negative” (Test System: AMES SALMONELLA TYPHIMURIUM, Strain/Indicator: TA100, Metabolic Activation: HAMSTER, LIVER, S-9, AROCLOR 1254 (30%), Method: PREINCUBATION). The mutagenic call by setting is: under setting [3], “inactive; negative”; (Test System: AMES SALMONELLA TYPHIMURIUM, Strain/Indicator: TA100, Metabolic Activation: RAT, LIVER, S-9, AROCLOR 1254 (10%), Method: PREINCUBATION) “inactive; negative”; (Test System: AMES SALMONELLA TYPHIMURIUM, Strain/Indicator: TA100, Metabolic Activation: RAT, LIVER, S-9, AROCLOR 1254 (30%), Method: PREINCUBATION) “inactive; negative”; (Test System: AMES SALMONELLA TYPHIMURIUM, Strain/Indicator: TA1535, Metabolic Activation: HAMSTER, LIVER, S-9, AROCLOR 1254 (10%), Method: PREINCUBATION) “inactive; negative”; (Test System: AMES SALMONELLA TYPHIMURIUM, Strain/Indicator: TA1535, Metabolic Activation: HAMSTER, LIVER, S-9, AROCLOR 1254 (30%), Method: PREINCUBATION) “inactive; negative”; under setting [4], “inactive; negative”. The mutagenic call is, setting by setting: (Test System: AMES SALMONELLA TYPHIMURIUM, Strain/Indicator: TA1535, Metabolic Activation: RAT, LIVER, S-9, AROCLOR 1254 (10%), Method: PREINCUBATION) “inactive; negative”; (Test System: AMES SALMONELLA TYPHIMURIUM, Strain/Indicator: TA1535, Metabolic Activation: RAT, LIVER, S-9, AROCLOR 1254 (30%), Method: PREINCUBATION) “inactive; negative”; (Test System: MOUSE LYMPHOMA, Strain/Indicator: L5178Y (TK+/TK-), Metabolic Activation: NONE, Method: SUSPENSION/PLATE) “active; positive. reevaluation of results: positive”; (Test System: MOUSE LYMPHOMA, Strain/Indicator: L5178Y (TK+/TK-), Metabolic Activation: RAT, LIVER, S-9, AROCLOR 1254, Method: SUSPENSION/PLATE) “active; positive. reevaluation of results: positive”.
For the compound `CN(C)Nc1ccn([C@@H]2O[C@H](CO)[C@@H](O)[C@H]2O)c(=O)n1`, the mutagenic call (Test System: CHINESE HAMSTER V-79, Strain/Indicator: V-79/6-THIOGUANINE, Metabolic Activation: NONE, Method: REPLATING) was “inactive; negative”.
